From patent US20260297070A1, “CYCLIC [COMPOUND LEFT OUT] WRN INHIBITORS” (Nimbus Wadjet, Inc., priority 2023, published 2026)

molecular target: T1, human Werner helicase (WRN-BV08, Uniprot Q14191, amino acids 517-1235 with L1074F point mutation) (Homo sapiens, UniProt Q14191, L1074F); assay: WRN (BV08) ADP-Glo Assay; assay type: biochemical; conditions: 0.15 nM WRN, 5 μM ATP, 0.1 nM DNA duplex, 15 min preincubation, 60 min at 25° C., pH 7.5, 1% DMSO; read-out: ADP-Glo_hWRN_IC50
T1 construct: Uniprot Q14191, amino acids 517-1235 with L1074F point mutation; TEV-cleavable 8×His (C, cleaved yes); made in house; host or cells: Sf9 insect cells (baculovirus)
How it was run: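 WRN 0.15 nM + cpd, 15 min 25 °C; add 5 μM ATP / 0.1 nM annealed DNA duplex; 60 min 25 °C; ADP-Glo stop, RLU. Buffer 20 mM Bicine pH 7.5, 1 mM MgCl2, 10 mM KCl, 1 mM TCEP. IC50, 4-parameter fit.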

T1 sequence (Q14191 with tags, fused parts or gaps L1074F limits assumed): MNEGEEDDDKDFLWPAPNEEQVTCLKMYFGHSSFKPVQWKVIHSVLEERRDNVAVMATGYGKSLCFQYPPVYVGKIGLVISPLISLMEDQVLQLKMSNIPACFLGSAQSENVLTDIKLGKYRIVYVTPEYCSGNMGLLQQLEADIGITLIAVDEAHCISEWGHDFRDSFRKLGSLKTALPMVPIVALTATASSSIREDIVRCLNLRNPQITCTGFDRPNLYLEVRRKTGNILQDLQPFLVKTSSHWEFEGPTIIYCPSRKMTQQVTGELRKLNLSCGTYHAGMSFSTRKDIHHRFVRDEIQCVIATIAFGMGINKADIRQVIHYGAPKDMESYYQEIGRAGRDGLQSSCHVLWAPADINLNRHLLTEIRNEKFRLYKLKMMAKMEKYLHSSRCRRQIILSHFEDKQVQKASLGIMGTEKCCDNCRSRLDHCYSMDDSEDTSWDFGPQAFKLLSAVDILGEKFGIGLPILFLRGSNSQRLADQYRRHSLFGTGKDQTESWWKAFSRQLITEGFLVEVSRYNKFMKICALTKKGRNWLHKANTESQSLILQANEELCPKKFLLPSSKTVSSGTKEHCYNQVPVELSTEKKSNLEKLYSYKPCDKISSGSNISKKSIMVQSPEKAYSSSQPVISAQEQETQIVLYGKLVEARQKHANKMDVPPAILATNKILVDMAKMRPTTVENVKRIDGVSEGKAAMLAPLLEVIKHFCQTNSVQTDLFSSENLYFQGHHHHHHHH

With `COc1cc(CN(C(=O)C(OCC#N)c2ccc(-c3ccc(F)c(F)c3)cc2F)[C@@H]2C=CS(=O)(=O)C2)ccn1` (single isomer, unassigned) [I-692, (2R*)-2-(cyanomethoxy)-N-[(3R)-1,1-dioxo-2,3-dihydro-1lambda6-thiophen-3-yl]-N-[(2-methoxypyridin-4-yl)methyl]-2-{3,3′,4′-trifluoro-[1,1′-biphenyl]-4-y]}acetamide] as the compound, how does the IC50 read?
Its IC50 is 10 to 50 µM.

With `CNC(=O)C(C(=O)N(Cc1ccnc(OC)c1)[C@@H]1C=CS(=O)(=O)C1)c1ccc(-c2ccc(F)c(F)c2)cc1F` (single isomer, unassigned) [I-693, (2R*)-N′-[(3R)-1,1-dioxo-2,3-dihydro-1lambda6-thiophen-3-yl]-N′-[(2-methoxypyridin-4-yl)methyl]-N-methyl-2-{3,3′,4′-trifluoro-[1,1′-biphenyl]-4-yl}propanediamide] as the compound, how does the IC50 read?
Its IC50 is < 0.5 µM.

With `CNC(=O)C(C(=O)N(Cc1ccnc(OC)c1)[C@@H]1C=CS(=O)(=O)C1)c1ccc(-c2ccc(F)c(F)c2)cc1F` (single isomer, unassigned) [I-694, (2R*)-N′-[(3R)-1,1-dioxo-2,3-dihydro-1lambda6-thiophen-3-yl]-N′-[(2-methoxypyridin-4-yl)methyl]-N-methyl-2-{3,3′,4′-trifluoro-[1,1′-biphenyl]-4-yl}propanediamide] as the compound, how does the IC50 read?
The IC50 was < 0.5 µM.

How did the IC50 turn out when `COc1cc(CN(C(=O)C(c2ccc(-c3ccc(F)c(F)c3)cc2F)n2cc(OC(F)F)cn2)[C@@H]2C=CS(=O)(=O)C2)ccn1` (single isomer, unassigned) [I-696, (2R*)-2-[4-(difluoromethoxy)-1H-pyrazol-1-yl]-N-[(3R)-1,1-dioxo-2,3-dihydro-1lambda6-thiophen-3-yl]-N-[(2-methoxypyridin-4-yl)methyl]-2-{3,3′,4′-trifluoro-[1,1′-biphenyl]-4-yl}acetamide] was run?
Its IC50 is > 50 µM.

With `COc1cc(CN(C(=O)C(c2ccc(-c3ccc(F)c(F)c3)cc2F)n2cc(C(F)F)cn2)[C@@H]2C=CS(=O)(=O)C2)ccn1` (single isomer, unassigned) [I-701, (2R*)-2-[4-(difluoromethyl)-1H-pyrazol-1-yl]-N-[(3R)-1,1-dioxo-2,3-dihydro-1lambda6-thiophen-3-yl]-N-[(2-methoxypyridin-4-yl)methyl]-2-{3,3′,4′-trifluoro-[1,1′-biphenyl]-4-yl}acetamide] as the compound, how does the IC50 read?
The IC50 was < 0.5 µM.

How did the IC50 turn out when `COc1cc(CN(C(=O)C(OCCS(C)(=O)=O)c2ccc(-c3ccc(F)c(F)c3)cc2F)[C@@H]2C=CS(=O)(=O)C2)ccn1` (single isomer, unassigned) [I-702, (2R*)-N-[(3R)-1,1-dioxo-2,3-dihydro-1lambda6-thiophen-3-yl]-2-(2-methanesulfonylethoxy)-N-[(2-methoxypyridin-4-yl)methyl]-2-{3,3′,4′-trifluoro-[1,1′-biphenyl]-4-yl}acetamide] was run?
Its IC50 is 0.5 to 5 µM.

`COc1cc(CN(C(=O)C(c2ccc(-c3ccc(F)c(F)c3)cc2F)n2cc(C#N)cn2)[C@@H]2C=CS(=O)(=O)C2)ccn1` (single isomer, unassigned) [I-703, (2R*)-2-(4-cyano-1H-pyrazol-1-yl)-N-[(3R)-1,1-dioxo-2,3-dihydro-1lambda6-thiophen-3-yl]-N-[(2-methoxypyridin-4-yl)methyl]-2-{3,3′,4′-trifluoro-[1,1′-biphenyl]-4-yl}acetamide] was tested. Which IC50 did it give?
The IC50 was < 0.5 µM.

`CC(C)(O)c1cc(CN(C(=O)Cn2cc(-c3ccc(F)c(F)c3F)cn2)C2C=CS(=O)(=O)C2)ccn1` (single isomer, unassigned) [I-704] was tested. Which IC50 did it give?
The IC50 was < 0.5 µM.

With `CC(C)(O)c1csc(CN(C(=O)Cc2ccc(S(F)(F)(F)(F)F)cc2)C2C=CS(=O)(=O)C2)n1` (single isomer, unassigned) [I-708] as the compound, how does the IC50 read?
The IC50 was 5 to 10 µM.

With `CC(C)(O)c1csc(CN(C(=O)Cc2ccc(S(F)(F)(F)(F)F)cc2)C2C=CS(=O)(=O)C2)n1` (single isomer, unassigned) [I-709] as the compound, how does the IC50 read?
Its IC50 is < 0.5 µM.

How did the IC50 turn out when `COc1cc(CN(C(=O)C(OCCS(C)(=O)=O)c2ccc(-c3ccc(F)c(F)c3)cc2F)[C@@H]2C=CS(=O)(=O)C2)ccn1` (single isomer, unassigned) [I-710, (2R*)-N-[(3R)-1,1-dioxo-2,3-dihydro-1lambda6-thiophen-3-yl]-2-(2-methanesulfonylethoxy)-N-[(2-methoxypyridin-4-yl)methyl]-2-{3,3′,4′-trifluoro-[1,1′-biphenyl]-4-yl}acetamide] was run?
The IC50 was > 50 µM.

`COc1cc(CN(C(=O)C(c2ccc(-c3ccc(F)c(F)c3)cc2F)n2cc(C(F)F)cn2)[C@@H]2C=CS(=O)(=O)C2)ccn1` (single isomer, unassigned) [I-711, (2R*)-2-[4-(difluoromethyl)-1H-pyrazol-1-yl]-N-[(3R)-1,1-dioxo-2,3-dihydro-1lambda6-thiophen-3-yl]-N-[(2-methoxypyridin-4-yl)methyl]-2-{3,3′,4′-trifluoro-[1,1′-biphenyl]-4-yl}acetamide] was tested. Which IC50 did it give?
Its IC50 is > 50 µM.

For `COc1cc(CN(C(=O)C(c2ccc(-c3ccc(F)c(F)c3)cc2F)n2cc(C#N)cn2)[C@@H]2C=CS(=O)(=O)C2)ccn1` (single isomer, unassigned) [I-712, (2R*)-2-(4-cyano-1H-pyrazol-1-yl)-N-[(3R)-1,1-dioxo-2,3-dihydro-1lambda6-thiophen-3-yl]-N-[(2-methoxypyridin-4-yl)methyl]-2-{3,3′,4′-trifluoro-[1,1′-biphenyl]-4-yl}acetamide], which IC50 is on record?
The IC50 was 0.5 to 5 µM.

`CC(C)(O)c1cc(CN(C(=O)Cn2ncc3cc(S(F)(F)(F)(F)F)ccc32)C2C=CS(=O)(=O)C2)ccn1` (single isomer, unassigned) [I-727] was tested. Which IC50 did it give?
Its IC50 is 0.5 to 5 µM.

With `CC(C)(O)c1cc(CN(C(=O)C2Cc3cc(S(F)(F)(F)(F)F)ccc3O2)[C@@H]2C=CS(=O)(=O)C2)ccn1` (single isomer, unassigned) [I-730] as the compound, how does the IC50 read?
Its IC50 is < 0.5 µM.

How did the IC50 turn out when `COc1cc(CN(C(=O)C(OCCC#N)c2ccc(-c3ccc(F)c(F)c3)cc2F)[C@@H]2C=CS(=O)(=O)C2)ccn1` (single isomer, unassigned) [I-735, (2R*)-2-(2-cyanoethoxy)-N-[(3R)-1,1-dioxo-2,3-dihydro-1lambda6-thiophen-3-yl]-N-[(2-methoxypyridin-4-yl)methyl]-2-{3,3′,4′-trifluoro-[1,1′-biphenyl]-4-yl}acetamide] was run?
The IC50 was 0.5 to 5 µM.

Which IC50 does the source give for `COc1cc(CN(C(=O)C(OCCC#N)c2ccc(-c3ccc(F)c(F)c3)cc2F)[C@@H]2C=CS(=O)(=O)C2)ccn1` (single isomer, unassigned) [I-736, (2R*)-2-(2-cyanoethoxy)-N-[(3R)-1,1-dioxo-2,3-dihydro-1lambda6-thiophen-3-yl]-N-[(2-methoxypyridin-4-yl)methyl]-2-{3,3′,4′-trifluoro-[1,1′-biphenyl]-4-yl}acetamide] here?
Its IC50 is > 50 µM.

How did the IC50 turn out when `COc1cc(CN(C(=O)C(c2ccc(-c3ccc(F)c(F)c3)cc2F)n2ccc(C)n2)[C@@H]2C=CS(=O)(=O)C2)ccn1` (single isomer, unassigned) [I-737, (2R*)-N-[(3R)-1,1-dioxo-2,3-dihydro-1lambda6-thiophen-3-yl]-N-[(2-methoxypyridin-4-yl)methyl]-2-(3-methyl-1H-pyrazol-1-yl)-2-{3,3′,4′-trifluoro-[1,1′-biphenyl]-4-yl}acetamide] was run?
Its IC50 is < 0.5 µM.

`COc1cc(CN(C(=O)C(c2ccc(-c3ccc(F)c(F)c3)cc2F)n2nccc2C)[C@@H]2C=CS(=O)(=O)C2)ccn1` (single isomer, unassigned) [I-738, (2R*)-N-[(3R)-1,1-dioxo-2,3-dihydro-1lambda6-thiophen-3-yl]-N-[(2-methoxypyridin-4-yl)methyl]-2-(5-methyl-1H-pyrazol-1-yl)-2-{3,3′,4′-trifluoro-[1,1′-biphenyl]-4-yl}acetamide] was tested. Which IC50 did it give?
The IC50 was > 50 µM.

How did the IC50 turn out when `COc1cc(CN(C(=O)C(OC2COC2)c2ccc(-c3ccc(F)c(F)c3)cc2F)[C@@H]2C=CS(=O)(=O)C2)ccn1` (single isomer, unassigned) [I-740, (2R*)-N-[(3R)-1,1-dioxo-2,3-dihydro-1lambda6-thiophen-3-yl]-N-[(2-methoxypyridin-4-yl)methyl]-2-(oxetan-3-yloxy)-2-{3,3′,4′-trifluoro-[1,1′-biphenyl]-4-yl}acetamide] was run?
Its IC50 is 0.5 to 5 µM.

Which IC50 does the source give for `COc1cc(CN(C(=O)C(OC2COC2)c2ccc(-c3ccc(F)c(F)c3)cc2F)[C@@H]2C=CS(=O)(=O)C2)ccn1` (single isomer, unassigned) [I-741, (2R*)-N-[(3R)-1,1-dioxo-2,3-dihydro-1lambda6-thiophen-3-yl]-N-[(2-methoxypyridin-4-yl)methyl]-2-(oxetan-3-yloxy)-2-{3,3′,4′-trifluoro-[1,1′-biphenyl]-4-yl}acetamide] here?
Its IC50 is > 50 µM.

`COc1cc(CN(C(=O)C(OCc2cnn(C)c2)c2ccc(-c3ccc(F)c(F)c3)cc2F)[C@@H]2C=CS(=O)(=O)C2)ccn1` (single isomer, unassigned) [I-742, (2R*)-N-[(3R)-1,1-dioxo-2,3-dihydro-1lambda6-thiophen-3-yl]-N-[(2-methoxypyridin-4-yl)methyl]-2-[(1-methyl-1H-pyrazol-4-yl)methoxy]-2-{3,3′,4′-trifluoro-[1,1′-biphenyl]-4-yl}acetamide] was tested. Which IC50 did it give?
The IC50 was 0.5 to 5 µM.

How did the IC50 turn out when `COc1cc(CN(C(=O)C(OCc2cnn(C)c2)c2ccc(-c3ccc(F)c(F)c3)cc2F)[C@@H]2C=CS(=O)(=O)C2)ccn1` (single isomer, unassigned) [I-743, (2R*)-N-[(3R)-1,1-dioxo-2,3-dihydro-1lambda6-thiophen-3-yl]-N-[(2-methoxypyridin-4-yl)methyl]-2-[(1-methyl-1H-pyrazol-4-yl)methoxy]-2-{3,3′,4′-trifluoro-[1,1′-biphenyl]-4-yl}acetamide] was run?
The IC50 was > 50 µM.
